Assay [1] concerns the target T1, L1 (Stenotrophomonas maltophilia, UniProt P52700).
T1 construct: made in house
Nature of the assay: MBL inhibition, L1 (nitrocefin hydrolysis). Format: biochemical. The conditions noted are these: for inhibition at 100 µM: 100 μM inhibitor, read-out: Inhibition of L1 (dash). As for the experimental part: (§1) Compounds were prepared as 10 mM solutions in DMSO before dilution with appropriate buffers. Buffers were 25 mM Hepes pH 7.5 for CphA or 25 mM Hepes pH 7.5, 50 µM ZnCl2 for L1. The rates in the absence of inhibitor were not modified by addition of 1% DMSO. CphA and L1 enzymes, purified as previously described, were used at concentrations between 0.2 and 0.8 nM, respectively. The enzyme and the inhibitor (100 µM) were pre-incubated for 30 min in a volume of 495 µL at room temperature. The hydrolysis of a solution of 100 µM imipenem for CphA was monitored by following the absorbance variation at 300 nm using a Specord 50 PLUS spectrophotometer (Analytik Jena, Jena, Germany). For L1, the reporter substrate was nitrocefin (100 µM). The enzyme activity was measured by following the absorbance variation at 482 nm. The substrate hydrolysis was done at 30 °C. The activity was tested by measuring the initial rates in three samples without inhibitor that allowed to determine the percentage of residual β-lactamase activity in the presence of inhibitors. If the residual activity in the presence of 100 µM inhibitor was <30%, the initial rate conditions were used to study the inhibition in the presence of increasing concentrations of compounds (from 1 to 100 µM) and to determine the competitive inhibition constant Ki. The Hanes linearization of the Henri–Michaelis equation was used, and Ki was calculated on the basis of the following equation, v = (Vmax.S)/[S + Km(1 + I/Ki)]. The assays were performed in triplicates.

For assay [2], the target named is T2, VIM-2 (Escherichia coli, UniProt Q5U7L7).
T2 construct: made in house; host or cells: E. coli BL21(DE3) derivative, pET-9a
Briefly: MBL inhibition, reporter substrate method, VIM-2. Type of assay: biochemical. The conditions noted are these: for Ki: hydrazine and hydrazide series, read-out: Ki Value VIM-2. The protocol:
(§2) Compounds were prepared in DMSO at a final concentration of 50 mM prior to dilution in the assay buffer. The reaction rate was measured as the variation of absorbance observed upon substrate hydrolysis in a UV-Vis spectrophotometer or microplate reader at a wavelength of 300 nm (imipenem, meropenem), 260 nm (cefotaxime), or 482 nm (nitrocefin) and in the presence of a purified MBL enzyme (such as VIM-1, VIM-2, VIM-4, NDM-1, and IMP-1, at a final concentration ranging from 1 to 70 nM).
(§3) These enzymes were overproduced in derivatives of E. coli BL21(DE3) carrying a pET-9 a (IMP-1, VIM-1, VIM-2, and VIM-4) or pET-15 b (NDM-1) vector into which the metallo-β-lactamase-encoding open reading frame was cloned. Bacterial strains were grown in the auto-inducing medium, ZYP-5052, supplemented with 50 μg/mL kanamycin for 24 h at 37 °C [38]. IMP-1, VIM-1, VIM-2, and VIM-4 were purified by ion-exchange and gel filtration chromatography using an AKTA Purifier platform (GE Healthcare, Uppsala, Sweden) as previously described. NDM-1 (residues 37-270) was produced as an amino-terminal 6 xHis-tag fusion protein and was purified using affinity chromatography. After growth for 26 h at 25 °C, bacterial cells were harvested by centrifugation (10,000× g, 30 min, 4 °C), resuspended in 10 mM HEPES buffer (pH 7.5) containing 0.15 M NaCl (buffer A) in one-fifth of the original culture volume, and lysed by sonication. Cellular debris was removed by centrifugation (12,000× g, 40 min, 4 °C). The clarified sample was loaded on a HisTrap HP column (bed volume, 5 mL; GE Healthcare), followed by a wash step (25 mL) with buffer A containing 20 mM imidazole. Proteins were eluted using buffer A containing 350 mM imidazole. The resulting protein sample was desalted (HiPrep 26/10 Desalting column, GE Healthcare) using 20 mM triethanolamine (pH 7.2) supplemented with 50 μM ZnSO4 and concentrated using an Amicon Ultra-15 (MW cut-off, 10 kDa; Millipore, Burlington, MA, USA). The concentrated sample was loaded on a Superdex 75 prep grade column (XK16/100 column; bed volume, 140 mL; GE Healthcare) and the proteins eluted with buffer A containing 50 μM ZnSO4. The active fractions were pooled and stored at −20 °C. The purity of the protein preparations was estimated >95% by SDS-PAGE analysis. The authenticity of the enzyme preparations was confirmed by electron spray ionization mass spectrometry, as previously described.
(§4) The inhibition constants (Ki) were determined on the basis of a model of competitive inhibition by analyzing the dependence of the ratio v0/vi (v0, hydrolysis velocity in the absence of inhibitor; vi, hydrolysis velocity in the presence of inhibitor) as a function of [I] as already described. The slope of the plot of v0/vi vs. [I], which corresponds to Km^S/(Km^S + [S])Ki (where Km^S is the Km value of the reporter substrate and [S] its concentration in the reaction mixture) and allowed the calculation of the Ki value. Alternatively, a Dixon plot analysis was carried out by measuring the initial hydrolysis rates in the presence of variable concentrations of inhibitor and substrate. This allowed Ki values to be determined and supported the hypothesis that the various compounds behaved as competitive inhibitors of the various tested enzymes. The assays were performed in triplicate.

For assay [3], the target named is T3, IMP-1 (Serratia marcescens, UniProt P52699).
T3 construct: made in house; host or cells: E. coli BL21(DE3) derivative, pET-9a
T3 sequence (P52699 19-246 limits assumed): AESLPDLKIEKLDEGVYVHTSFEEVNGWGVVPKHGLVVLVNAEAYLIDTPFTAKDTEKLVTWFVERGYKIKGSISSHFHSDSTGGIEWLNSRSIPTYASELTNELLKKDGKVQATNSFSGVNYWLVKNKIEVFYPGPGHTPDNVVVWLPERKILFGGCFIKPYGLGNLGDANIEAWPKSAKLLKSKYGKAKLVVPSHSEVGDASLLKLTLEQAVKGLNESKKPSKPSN
Briefly: MBL inhibition, reporter substrate method, IMP-1. Type of assay: biochemical. As for the experimental part:
as §2, §3, §4

In assay [4] the target is T4, VIM-4 (Pseudomonas aeruginosa, UniProt A0A0F7KYQ8, S205R).
T4 construct: made in house; host or cells: E. coli BL21(DE3) derivative, pET-9a
Nature of the assay: MBL inhibition, reporter substrate method, VIM-4. Type of assay: biochemical. The protocol: as §2, §3, §4

The target in assay [5] is T5, NDM-1 (Klebsiella pneumoniae, UniProt C7C422). Nature of the assay: MBL inhibition, reporter substrate method, NDM-1. Type of assay: biochemical. The protocol: as §2, §3, §4
T5 sequence (C7C422 37-270 limits assumed): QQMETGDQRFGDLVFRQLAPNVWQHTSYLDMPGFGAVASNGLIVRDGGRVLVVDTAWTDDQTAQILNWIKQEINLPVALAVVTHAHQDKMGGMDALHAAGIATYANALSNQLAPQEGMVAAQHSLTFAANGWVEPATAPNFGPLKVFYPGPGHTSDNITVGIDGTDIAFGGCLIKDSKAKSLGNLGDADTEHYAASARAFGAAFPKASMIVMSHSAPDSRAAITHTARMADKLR
In assay [6] the target is T6, VIM-1 (Pseudomonas aeruginosa, UniProt A0A0F7KYQ8).
T6 construct: made in house; host or cells: E. coli BL21(DE3) derivative, pET-9a
Briefly: MBL inhibition, reporter substrate method, VIM-1. Format: biochemical. As for the experimental part:
as §2, §3, §4

Assay [7] concerns E. coli LZ2310(pLBII-VIM-2). Briefly: microbe, parasite or virus in culture. Type of assay: cell-based, Escherichia coli. Conditions: for Restoration of cefoxitin activity (in words): 30 μg cefoxitin disk, compound 1 at 48 μg, EUCAST clinical breakpoints; for zone of inhibition at 120 µg/disc / zone of inhibition at 40 µg/disc: Escherichia coli, read-out: Inhibition Zone Diameter. As for the experimental part: (§5) The potential activity of selected compounds was assessed by the agar disk-diffusion method, according to the CLSI (Clinical Laboratory Standard Institute) recommendations, using Mueller–Hinton medium. The inhibitor (dissolved in DMSO) was added (maximum volume of 15 μL) to a commercially available disk containing a defined amount of a β-lactam antibiotic (30 μg of cefoxitin (Oxoid, Milan, Italy)). After incubation (18 h at 35 °C), the diameter of the growth inhibition zone was measured and compared to that obtained in the absence of inhibitor. DMSO and EDTA (220 μg) were used as negative and positive controls, respectively. Experiments were performed in triplicate.
These tests were performed on an isogenic laboratory strain obtained after transforming Escherichia coli LZ2310 strain with a derivative of the high copy number plasmid pLB-II carrying the cloned blaVIM-2 gene harboring a cloned gene encoding the functional metallo-β-lactamase. Strain LZ2310 is a triple knockout mutant derived from K12 in which the genes encoding for components of the three major efflux pump systems were inactivated (genotype, ∆norE ∆mdfA N43 acrA1) and was used to generate an hyperpermeable background for MBL production and investigate the potential contribution of such mechanisms to inhibitor efflux.

The test system of assay [8] is VIM-4-producing laboratory strain. Briefly: Disk diffusion on VIM-4-producing laboratory strain. Format: cell-based. The protocol:
as §5

Assay [9] deals with T2, VIM-2. Conditions: Schiff base analogs; read-out: Ki Value VIM-2, hydrazone-like compound (converted); cited from earlier work.
The target of assay [10] is T5, NDM-1. The arrangement: method as in PMID 32937203. Conditions: Schiff base analogs; read-out: Ki Value NDM-1, hydrazone-like compound (converted); cited from earlier work.
The target in assay [11] is T3, IMP-1. The arrangement: method as in PMID 32937203. Conditions: in parentheses; 100 μM inhibitor; cited from earlier work.
Assay [12] has as its target T4, VIM-4. The arrangement: method as in PMID 32937203. The conditions noted are these: Figure 1; read-out: Ki VIM-4, Schiff base; cited from earlier work.
Assay [13] concerns the target T7, CphA (Aeromonas hydrophila, UniProt P26918).
T7 construct: made in house
Nature of the assay: MBL inhibition, CphA (imipenem hydrolysis). Format: biochemical. As for the experimental part:
as §1, with “If the residual activity in the presence of 100 µM inhibitor was <30%, the initial rate conditions were used to study the inhibition in the presence of increasing concentrations of compounds (from 1 to 100 µM) and to determine the competitive inhibition constant Ki.” left out, “The assays were performed in triplicates.” left out

The mark [14] stands for this setting: read-out: Inhibition of IMP-1 (dash in Ki column).
[15] abbreviates: read-out: Inhibition of NDM-1 (dash in Ki column).
Setting [16] is: read-out: Inhibition of VIM-1 (dash).

These results are taken from paper PMC7465886, “4-(N-Alkyl- and -Acyl-amino)-1,2,4-triazole-3-thione Analogs as Metallo-β-Lactamase Inhibitors: Impact of 4-Linker on Potency and Spectrum of Inhibition” (Biomolecules, 2020).

Where two headings read alike, the source gives them in different places.

By inhibition is commonly meant the drop in the measured response relative to a control, in per cent. The term Ki denotes a dissociation constant, usually derived from enzyme kinetics or from competition with a known ligand.

T1 sequence (P52700 34-290): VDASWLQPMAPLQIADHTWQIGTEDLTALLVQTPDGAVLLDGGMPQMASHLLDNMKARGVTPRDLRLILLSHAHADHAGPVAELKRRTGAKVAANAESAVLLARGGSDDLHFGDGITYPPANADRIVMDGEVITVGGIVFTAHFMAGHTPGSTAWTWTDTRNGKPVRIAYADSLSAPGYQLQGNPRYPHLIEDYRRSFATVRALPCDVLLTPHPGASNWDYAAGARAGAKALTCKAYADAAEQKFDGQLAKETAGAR
T7 sequence (P26918 28-254): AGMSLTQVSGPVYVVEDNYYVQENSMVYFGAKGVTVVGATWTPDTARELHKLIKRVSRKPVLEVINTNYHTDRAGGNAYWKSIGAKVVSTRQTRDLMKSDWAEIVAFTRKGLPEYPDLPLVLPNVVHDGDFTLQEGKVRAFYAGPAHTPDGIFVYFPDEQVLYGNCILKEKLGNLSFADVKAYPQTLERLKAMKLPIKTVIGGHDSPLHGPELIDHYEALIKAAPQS

For the molecule `O=C(O)c1ccccc1CNn1c(-c2ccc3ccccc3c2)n[nH]c1=S` [Compound 4], the inhibition at 100 µM in assay [1] is under 30%; in [3] (setting [14]), under 40%; in assay [5] (setting [15]), under 40%; in assay [6] (read-out: Percentage of Inhibition at 100 μM Inhibitor, VIM-1) it was 32%. Also, the figures for the Ki in assay [2] and in assay [4] were 4.2 ± 0.9 µM and 6.3 ± 0.7 µM, respectively. Moreover, in assay [7], the “Restoration of cefoxitin activity (in words)” value was “did not show any remarkable activity”. In [7], the zone of inhibition at 120 µg/disc amounted to 10 mm.
With `O=C(O)c1ccccc1CNn1c(Cc2ccccc2)n[nH]c1=S` [Compound 6], the inhibition at 100 µM in [1] was under 30%; in assay [3] (setting [14]), under 40%; in [4] (read-out: Inhibition of VIM-4 (dash)), under 30%; in assay [5] (setting [15]), under 40%; in assay [6] (setting [16]) it was under 30%. For the same molecule, in assay [2], the Ki was determined as 8.5 ± 2.3 µM. Also, the “Restoration of cefoxitin activity (in words)” value in assay [7] is recorded as “did not show any remarkable activity”. The zone of inhibition at 40 µg/disc in assay [7] stood at 10 mm.
Take `O=C(O)c1ccccc1C(=O)Nn1c(-c2cccc(-c3ccccc3)c2)n[nH]c1=S` [Compound 19]: the inhibition at 100 µM is 36% in assay [2] (read-out: Percentage of Inhibition at 100 μM Inhibitor, VIM-2); 40% in [3] (read-out: Percentage of Inhibition at 100 μM Inhibitor, IMP-1); 41% in assay [4] (read-out: Percentage of Inhibition at 100 μM Inhibitor, VIM-4); 42% in assay [5] (read-out: Percentage of Inhibition at 100 μM Inhibitor, NDM-1); under 30% in assay [6] (setting [16]).
Take `O=C(O)c1ccccc1CNn1c(-c2cccc(-c3ccccc3)c2)n[nH]c1=S` [Compound 3]: the Ki in assay [2] was 0.24 ± 0.02 µM; in [3] (hydrazine series, read-out: Ki Value IMP-1), 76 ± 13 µM; in assay [4] it was 0.57 ± 0.03 µM; in [5] (hydrazine series, read-out: Ki Value NDM-1) it was 8.2 ± 0.7 µM; in assay [6], 3.6 ± 0.2 µM. Also, the “Restoration of β-lactam activity (in words)” value in assay [8] was “lack of restoration activity”. The “Restoration of cefoxitin activity (in words)” value in assay [7] is “devoid of activity”. In assay [7], the zone of inhibition at 120 µg/disc was 11 mm.
As to `O=C(O)c1ccccc1CNn1c(Cc2ccc3ccccc3c2)n[nH]c1=S` [Compound 7], the figures for the inhibitory constant (Ki) in assay [2], in assay [4] and in assay [6] were 1.8 ± 0.2 µM, 4.7 ± 0.3 µM and 19.5 ± 1.3 µM, respectively. In addition, the inhibition at 100 µM in assay [3] (setting [14]) and in [5] (setting [15]) was under 40% throughout. Besides, in assay [7], the “Restoration of cefoxitin activity (in words)” value is “did not show any remarkable activity”. Besides, the zone of inhibition at 120 µg/disc in [7] was 11 mm.
Turning to `O=C(O)c1ccccc1/C=N/n1c(-c2ccccc2)n[nH]c1=S` [JMV4390], the Ki in assay [9] is 2.7 µM; in [10], 38 µM; in [12], 1.4 µM. In assay [11], the “Inhibition of IMP-1 (dash in Ki column), corresponding hydrazone-like compound” value was “-^2 (-) (<40% of inhibition in the presence of 100 μM inhibitor)”.
`Cc1ccccc1-c1n[nH]c(=S)n1NCc1ccccc1C(=O)O` [Compound 2]: the Ki in [1] was 110 ± 10 µM; in assay [2], 8 ± 0.7 µM; in assay [4] it was 10 ± 1 µM; in [13], 100 ± 10 µM. The inhibition at 100 µM in assay [3] (setting [14]) was under 40%; in [5] (setting [15]), under 40%; in assay [6] (setting [16]) it was under 30%. Further, the “Restoration of cefoxitin activity (in words)” value in [7] is “did not show any remarkable activity”. Further, the zone of inhibition at 40 µg/disc in assay [7] turned out to be 11 mm.
